Assay results: ChEMBL document CHEMBL1138276, “Discovery of small-molecule inhibitors of tyrosinase” (Bioorg Med Chem Lett, 2007)

How the values were obtained:
[1] = molecular target: T1, Tyrosinase (Agaricus bisporus) (UniProt O42713); test: Inhibition of mushroom tyrosinase at 15 uM
T1 sequence (whole entry): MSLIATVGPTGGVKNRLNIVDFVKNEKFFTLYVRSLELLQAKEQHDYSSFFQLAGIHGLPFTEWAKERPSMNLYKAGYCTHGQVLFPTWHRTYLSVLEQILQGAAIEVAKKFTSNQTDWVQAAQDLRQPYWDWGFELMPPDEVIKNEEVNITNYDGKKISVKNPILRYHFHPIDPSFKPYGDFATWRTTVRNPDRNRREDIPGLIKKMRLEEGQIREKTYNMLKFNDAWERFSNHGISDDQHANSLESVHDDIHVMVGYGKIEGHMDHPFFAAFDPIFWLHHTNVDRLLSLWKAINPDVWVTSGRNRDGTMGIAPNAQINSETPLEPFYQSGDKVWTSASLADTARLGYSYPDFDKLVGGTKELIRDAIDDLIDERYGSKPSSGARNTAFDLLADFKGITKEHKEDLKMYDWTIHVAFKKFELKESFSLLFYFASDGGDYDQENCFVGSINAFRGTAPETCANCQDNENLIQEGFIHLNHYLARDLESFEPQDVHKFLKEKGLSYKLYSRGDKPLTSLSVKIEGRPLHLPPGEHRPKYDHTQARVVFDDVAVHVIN

[2] = molecular target: T1, Tyrosinase (Agaricus bisporus); test: Inhibition of mushroom tyrosinase at 1.7 uM
[3] = (§1) Decrease of pigmentation in human MNT1 cells at 15 uM after 4 days; type: functional; settings: MNT-1, 96 h
MNT1 = test: as §1; type: functional
Tyrosinase = molecular target: T2, Tyrosinase (Agaricus bisporus, UniProt O42713); test: Inhibition of mushroom tyrosinase
T2 sequence (O42713 whole entry): T1 sequence (whole entry)

| SMILES | inhibition [1] | inhibition [2] | IC50 (Tyrosinase) | inhibition at 15 µM [3] | Activity (MNT1) |
| --- | --- | --- | --- | --- | --- |
| S=c1[nH]c(-c2ccc3c(c2)OCO3)cn1-c1ccc(Oc2ccccc2)cc1 | 54% | 41% | – | 44% | – |
| Cc1ccn2c(-c3csc(Nc4ccccn4)n3)c(C)nc2c1 | – | – | – | 48% | – |
| CCCCCOc1ccc(NC2=C(N3CCCC3)C(=O)c3ccccc3C2=O)cc1 | 51% | 47% | – | 48% | – |
| Oc1ccc(-c2csc(Nc3ccccn3)n2)c(O)c1 | – | – | – | 54% | – |
| Cc1ccccc1NC(=O)CSC(N)=O | 66% | 47% | – | -15% | – |
| COc1ccc(-c2nc(-c3ccc(O)cc3O)cs2)c(OC)c1 | – | – | 2000 nM | 91% | – |
| Cc1ccc(-c2csc(Nc3cc(C)ccn3)n2)cc1 | – | – | – | 75% | – |
| Cc1cccnc1Nc1nc(-c2ccc(O)cc2O)cs1 | – | – | – | 74% | – |
| O=C(O)c1cccc(Nc2nc(-c3ccc(O)cc3O)cs2)c1 | – | – | – | -6% | – |

The next lines start with results.

| inhibition [1] | inhibition [2] | IC50 (Tyrosinase) | SMILES | inhibition at 15 µM [3] | Activity (MNT1) |
| --- | --- | --- | --- | --- | --- |
| 52% | 44% | – | C/C(=N\NC(=S)Nc1cccc(C)c1)c1cccc(N)c1 | 38% | – |
| 46% | 36% | – | CC(=O)Nc1ccc(Nc2nc(-c3c(C)nc4ccc(C)cn34)cs2)cc1 | – | Toxic |
| 40% | 25% | – | C/C(=N\NC(=N)SC1CC(=O)N(c2ccc(Cl)cc2)C1=O)c1cccs1 (stereo not drawn) | 19% | – |
| 43% | 40% | – | COc1ccc2nc(SCC(=O)Nc3ccc4c(c3)OCCO4)[nH]c2c1 | 34% | – |
| 48% | 23% | – | O=S(=O)(c1ccc(NC(=S)Nc2ccccc2)cc1)N1CCCCC1 | 56% | – |
| – | – | 100 nM | Cc1ccnc(Nc2nc(-c3ccc(O)cc3O)cs2)c1 | 83% | – |
